The text below walks through data of patent publication US4310533A, “Guanidinobenzoic acid derivatives” (Ono Pharmaceutical Co., Ltd., priority 1979, dated 1982).

pIC50: −log10 of the molar value. Counter-ions that a name gives are not always drawn.

The target of one data set is T1, trypsin (Bos taurus, UniProt P00760).
T1 sequence (P00760 24-246): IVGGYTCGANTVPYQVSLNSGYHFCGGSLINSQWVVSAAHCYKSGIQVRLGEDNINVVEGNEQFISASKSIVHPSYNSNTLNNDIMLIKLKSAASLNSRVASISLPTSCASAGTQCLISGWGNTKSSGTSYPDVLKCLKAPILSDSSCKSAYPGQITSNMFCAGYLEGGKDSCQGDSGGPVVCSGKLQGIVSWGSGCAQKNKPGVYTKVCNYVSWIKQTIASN
Description: Inhibitory activity on trypsin in vitro (hydrolysis of p-tosylarginine methyl ester). Format: biochemical. To be noted: trypsin 0.5 μg, 37° C., 30 minutes, read-out: 50% Inhibition Concentration (molar concentration), Anti-Trypsin. The method, then:
The inhibitory activities on trypsin and plasmin in vitro were determined by the methods of M. Muramatsu et al. described in the Journal of Biochemistry, 58, 214 (1965) for trypsin, and ibid., 57, 402 (1964) for plasmin, and the results are shown in Table 1
^(1) The concentration of the compounds represented by the general
formula (I) at which the activity of trypsin 0.5 μg to hydrolyze
ptosylarginine methyl ester was 50% inhibited, when treated at 37°

Data set [1] deals with T2, plasmin (Homo sapiens, UniProt P00747).
T2 construct: from tissue; host or cells: human euglobulin (plasma fraction), with streptokinase added
Description: Inhibitory activity on plasmin in vitro (euglobulin/streptokinase/fibrinogen system). The data set is classed as biochemical. The following applies: human euglobulin, streptokinase, fibrinogen, borate saline buffer pH 7.4, 37° C., 30 minutes; read-out: 50% Inhibition Concentration (molar concentration), Anti-Plasmin.
Description: ^(2) The concentration of the compounds represented by the general
formula (I) at which the activity of plasmin was 50% inhibited, when
reacted in a system comprising 0.1 ml of humaneuglobulin (10 fold
dilution), 0.1 ml of streptokinase (2,000 unit/ml), 0.4 ml of fibrinogen
(4% solution), 0.3 ml of a 0.1M borate saline buffer solution (pH 7.4) an
0.1 ml of a solution of each of the compounds at 37° C. for 30

A short description of another data set: Solubility in water. Format: physicochemical.
The test system of data set [2] is plasmin. The following applies: prior art; cited from earlier work.

T2 sequence (P00747 581-810 limits assumed): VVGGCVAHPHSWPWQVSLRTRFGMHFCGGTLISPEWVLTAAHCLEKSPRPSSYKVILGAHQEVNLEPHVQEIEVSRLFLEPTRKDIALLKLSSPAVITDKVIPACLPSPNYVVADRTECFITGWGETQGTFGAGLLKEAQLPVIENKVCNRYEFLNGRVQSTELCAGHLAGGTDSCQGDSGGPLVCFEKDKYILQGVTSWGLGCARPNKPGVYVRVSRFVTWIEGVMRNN
T2 sequence (P00747 97-580 limits assumed): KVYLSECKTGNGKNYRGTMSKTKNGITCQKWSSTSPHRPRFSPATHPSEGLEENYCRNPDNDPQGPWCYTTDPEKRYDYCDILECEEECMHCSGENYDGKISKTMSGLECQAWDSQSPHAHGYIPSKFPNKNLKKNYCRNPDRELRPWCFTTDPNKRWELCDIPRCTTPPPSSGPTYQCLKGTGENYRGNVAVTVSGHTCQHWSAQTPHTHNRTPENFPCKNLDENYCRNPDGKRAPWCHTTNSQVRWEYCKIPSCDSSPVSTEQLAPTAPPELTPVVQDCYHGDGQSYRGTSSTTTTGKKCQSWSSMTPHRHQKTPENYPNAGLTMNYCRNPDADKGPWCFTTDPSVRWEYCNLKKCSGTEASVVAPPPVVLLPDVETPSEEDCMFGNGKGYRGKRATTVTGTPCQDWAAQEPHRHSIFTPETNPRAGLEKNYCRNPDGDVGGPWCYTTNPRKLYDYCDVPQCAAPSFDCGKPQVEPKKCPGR

As to `CS(=O)(=O)O.N=C(N)Nc1ccc(C(=O)Oc2ccc(C(=O)OCC(=O)N3CCCCC3)cc2)cc1` [Compound No. 1, piperidinocarbonylmethyl 4-(4-guanidinobenzoyloxy)benzoate mesylate], the values for the pIC50 on trypsin and at plasmin [1] were 9.30 and 9.35, respectively. In the data set “Solubility in water”, the solubility – broadly, the dissolved amount per volume that the medium holds – turned out to be 20 mM.

On to `N=C(N)Nc1ccc(C(=O)Oc2ccc(C(=O)OCC(=O)NC3CCCCC3)cc2)cc1` [Compound No. 2, N-cyclohexylcarbamoylmethyl 4-(4-guanidinobenzoyloxy)benzoate mesylate], for which the pIC50 on trypsin was 9.74; on plasmin [1], 9.89. The compound also returned a solubility in the data set “Solubility in water” of 20 mM.

Regarding `NC[C@H]1CC[C@H](C(=O)O)CC1` [Compound No. 3, trans-4-aminomethylcyclohexanecarboxylic acid], the “anti-plasmin activity (in words)” value with plasmin [2] is on record as “relatively low activities”.
